Assay results taken from publication PMC12300041, “Tricyclic Isatin Derivatives as Anti-Inflammatory Compounds with High Kinase Binding Affinity” (Molecules, 2025).

Experiments:
Experiment in all cases: KINOMEscan
Type in all cases: binding
FLT1 = target: T1, FLT1 (Homo sapiens, UniProt P17948)
T1 construct: purchased Eurofins DiscoverX KINOMEscan
Summary of the method: (§1)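 Measured as Kd. Free kinase after 1 h at room temperature was captured on immobilized ligand and detected by qPCR; compound titrated in 12 half-log steps from 33 μM.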

AURKB = target: T2, AURKB (Homo sapiens, UniProt Q96GD4)
T2 construct: purchased Eurofins DiscoverX KINOMEscan
Summary of the method: (§2)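 1 h RT binding → immobilized-ligand capture of free kinase → qPCR quantitation. Kd: 12 half-log points, max 33 μM.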

YES = target: T3, YES (Homo sapiens, UniProt P07947)
T3 construct: purchased Eurofins DiscoverX KINOMEscan
Summary of the method: as §2

CDC2L2 = target: T4, CDC2L2 (Homo sapiens, UniProt Q9UQ88)
T4 construct: purchased Eurofins DiscoverX KINOMEscan
Summary of the method: as §2

HIPK4 = target: T5, HIPK4 (Homo sapiens, UniProt Q8NE63)
T5 construct: purchased Eurofins DiscoverX KINOMEscan
Summary of the method: as §1

CSNK1A1L = target: T6, CSNK1A1L (Homo sapiens, UniProt Q8N752)
T6 construct: purchased Eurofins DiscoverX KINOMEscan
Summary of the method: as §1

CAMK2D = target: T7, CAMK2D (Homo sapiens, UniProt Q13557)
T7 construct: purchased Eurofins DiscoverX KINOMEscan
Summary of the method: as §2

RET (M918T) = target: T8, RET (M918T) (Homo sapiens, UniProt P07949, M918T)
T8 construct: purchased Eurofins DiscoverX KINOMEscan
Summary of the method: as §2

ACVR2B = target: T9, ACVR2B (Homo sapiens, UniProt Q13705)
T9 construct: purchased Eurofins DiscoverX KINOMEscan
Summary of the method: as §1

BRSK2 = target: T10, BRSK2 (Homo sapiens, UniProt Q8IWQ3)
T10 construct: purchased Eurofins DiscoverX KINOMEscan
Summary of the method: as §2

CSK = target: T11, CSK (Homo sapiens, UniProt P41240)
T11 construct: purchased Eurofins DiscoverX KINOMEscan
Summary of the method: as §2

MKK7 = target: T12, MKK7 (Homo sapiens, UniProt O14733)
T12 construct: purchased Eurofins DiscoverX KINOMEscan
Summary of the method: as §2

FGFR1 = target: T13, FGFR1 (Homo sapiens, UniProt P11362)
T13 construct: purchased Eurofins DiscoverX KINOMEscan
Summary of the method: as §2

DMPK = target: T14, DMPK (Homo sapiens, UniProt Q09013)
T14 construct: purchased Eurofins DiscoverX KINOMEscan
Summary of the method: as §1

CAMK2G = target: T15, CAMK2G (Homo sapiens, UniProt Q13555)
T15 construct: purchased Eurofins DiscoverX KINOMEscan
Summary of the method: as §1

TAOK3 = target: T16, TAOK3 (Homo sapiens, UniProt Q9H2K8)
T16 construct: purchased Eurofins DiscoverX KINOMEscan
Summary of the method: as §2

TRKA = target: T17, TRKA (Homo sapiens, UniProt P04629)
T17 construct: purchased Eurofins DiscoverX KINOMEscan
Summary of the method: as §1

FYN = target: T18, FYN (Homo sapiens, UniProt P06241)
T18 construct: purchased Eurofins DiscoverX KINOMEscan
Summary of the method: as §2

CSNK1G2 = target: T19, CSNK1G2 (Homo sapiens, UniProt P78368)
T19 construct: purchased Eurofins DiscoverX KINOMEscan
Summary of the method: as §2

MYLK4 = target: T20, MYLK4 (Homo sapiens, UniProt Q86YV6)
T20 construct: purchased Eurofins DiscoverX KINOMEscan
Summary of the method: as §2

EGFR (L861Q) = target: T21, EGFR (L861Q) (Homo sapiens, UniProt P00533, L861Q)
T21 construct: purchased Eurofins DiscoverX KINOMEscan
Summary of the method: as §2

PHKG1 = target: T22, PHKG1 (Homo sapiens, UniProt Q16816)
T22 construct: purchased Eurofins DiscoverX KINOMEscan
Summary of the method: as §1

STK36 = target: T23, STK36 (Homo sapiens, UniProt Q9NRP7)
T23 construct: purchased Eurofins DiscoverX KINOMEscan
Summary of the method: as §1

CAMK2A = target: T24, CAMK2A (Homo sapiens, UniProt Q9UQM7)
T24 construct: purchased Eurofins DiscoverX KINOMEscan
Summary of the method: as §2

ABL1 (Q252H)-non-P = target: T25, ABL1 (Q252H)-non-P (Homo sapiens, UniProt P00519, Q252H)
T25 construct: purchased Eurofins DiscoverX KINOMEscan
Summary of the method: as §2

MLK1 = target: T26, MLK1 (Homo sapiens, UniProt P80192)
T26 construct: purchased Eurofins DiscoverX KINOMEscan
Summary of the method: as §2

ABL1 (Y253F)-P = target: T27, ABL1 (Y253F)-P (Homo sapiens, UniProt P00519, Y253F)
T27 construct: purchased Eurofins DiscoverX KINOMEscan
Summary of the method: as §2

ROCK2 = target: T28, ROCK2 (Homo sapiens, UniProt O75116)
T28 construct: purchased Eurofins DiscoverX KINOMEscan
Summary of the method: as §1

WNK3 = target: T29, WNK3 (Homo sapiens, UniProt Q9BYP7)
T29 construct: purchased Eurofins DiscoverX KINOMEscan
Summary of the method: as §2

FLT3-autoinhibited = target: T30, FLT3-autoinhibited (Homo sapiens, UniProt P36888)
T30 construct: purchased Eurofins DiscoverX KINOMEscan
Summary of the method: as §2

RIPK4 = target: T31, RIPK4 (Homo sapiens, UniProt P57078)
T31 construct: purchased Eurofins DiscoverX KINOMEscan
Summary of the method: as §2

MARK1 = target: T32, MARK1 (Homo sapiens, UniProt Q9P0L2)
T32 construct: purchased Eurofins DiscoverX KINOMEscan
Summary of the method: as §2

PHKG2 = target: T33, PHKG2 (Homo sapiens, UniProt P15735)
T33 construct: purchased Eurofins DiscoverX KINOMEscan
Summary of the method: as §1

CASK = target: T34, CASK (Homo sapiens, UniProt O14936)
T34 construct: purchased Eurofins DiscoverX KINOMEscan
Summary of the method: as §2

CSNK1D = target: T35, CSNK1D (Homo sapiens, UniProt P48730)
T35 construct: purchased Eurofins DiscoverX KINOMEscan
Summary of the method: as §1

PRKCI = target: T36, PRKCI (Homo sapiens, UniProt P41743)
T36 construct: purchased Eurofins DiscoverX KINOMEscan
Summary of the method: as §2

[1] = target: T37, RPS6KA4 (Kin. Dom.1-N-term.) (Homo sapiens, UniProt O75676)
T37 construct: RPS6KA4 (Kin. Dom.1-N-term.); purchased Eurofins DiscoverX KINOMEscan
Summary of the method: as §1

EPHA2 = target: T38, EPHA2 (Homo sapiens, UniProt P29317)
T38 construct: purchased Eurofins DiscoverX KINOMEscan
Summary of the method: as §2

TBK1 = target: T39, TBK1 (Homo sapiens, UniProt Q9UHD2)
T39 construct: purchased Eurofins DiscoverX KINOMEscan
Summary of the method: as §2

T12 sequence (O14733 whole entry): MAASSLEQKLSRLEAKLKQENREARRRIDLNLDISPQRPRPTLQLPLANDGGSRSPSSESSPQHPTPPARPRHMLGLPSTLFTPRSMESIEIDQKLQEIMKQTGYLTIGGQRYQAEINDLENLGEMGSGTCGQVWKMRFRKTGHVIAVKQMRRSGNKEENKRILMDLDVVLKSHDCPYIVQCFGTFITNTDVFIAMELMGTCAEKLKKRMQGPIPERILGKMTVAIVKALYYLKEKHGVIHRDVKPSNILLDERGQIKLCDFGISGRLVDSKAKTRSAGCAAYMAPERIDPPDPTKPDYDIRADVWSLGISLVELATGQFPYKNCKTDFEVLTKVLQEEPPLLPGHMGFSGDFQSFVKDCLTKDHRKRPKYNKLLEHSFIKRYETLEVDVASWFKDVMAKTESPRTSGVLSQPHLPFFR
T17 sequence (P04629 33-796): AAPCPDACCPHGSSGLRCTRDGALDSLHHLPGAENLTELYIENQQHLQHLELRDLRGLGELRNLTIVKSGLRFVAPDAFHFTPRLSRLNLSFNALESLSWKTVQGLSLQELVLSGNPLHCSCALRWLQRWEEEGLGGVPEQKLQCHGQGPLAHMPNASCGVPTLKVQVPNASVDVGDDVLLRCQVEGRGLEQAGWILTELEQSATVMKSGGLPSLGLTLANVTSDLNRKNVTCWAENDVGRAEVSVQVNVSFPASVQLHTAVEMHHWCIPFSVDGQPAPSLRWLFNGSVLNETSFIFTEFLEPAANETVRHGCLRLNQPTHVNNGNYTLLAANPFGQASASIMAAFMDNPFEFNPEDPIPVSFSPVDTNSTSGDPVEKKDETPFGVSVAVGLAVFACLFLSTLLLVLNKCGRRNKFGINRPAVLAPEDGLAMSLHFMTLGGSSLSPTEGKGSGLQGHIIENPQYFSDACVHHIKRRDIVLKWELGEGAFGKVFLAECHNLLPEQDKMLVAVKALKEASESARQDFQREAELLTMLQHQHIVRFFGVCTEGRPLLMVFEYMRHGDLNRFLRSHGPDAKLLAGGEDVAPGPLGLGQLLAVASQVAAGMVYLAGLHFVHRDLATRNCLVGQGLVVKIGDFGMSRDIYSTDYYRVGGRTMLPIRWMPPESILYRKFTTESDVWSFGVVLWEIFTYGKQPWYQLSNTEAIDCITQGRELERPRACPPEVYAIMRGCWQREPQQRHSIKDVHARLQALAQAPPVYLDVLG
T16 sequence (Q9H2K8 whole entry): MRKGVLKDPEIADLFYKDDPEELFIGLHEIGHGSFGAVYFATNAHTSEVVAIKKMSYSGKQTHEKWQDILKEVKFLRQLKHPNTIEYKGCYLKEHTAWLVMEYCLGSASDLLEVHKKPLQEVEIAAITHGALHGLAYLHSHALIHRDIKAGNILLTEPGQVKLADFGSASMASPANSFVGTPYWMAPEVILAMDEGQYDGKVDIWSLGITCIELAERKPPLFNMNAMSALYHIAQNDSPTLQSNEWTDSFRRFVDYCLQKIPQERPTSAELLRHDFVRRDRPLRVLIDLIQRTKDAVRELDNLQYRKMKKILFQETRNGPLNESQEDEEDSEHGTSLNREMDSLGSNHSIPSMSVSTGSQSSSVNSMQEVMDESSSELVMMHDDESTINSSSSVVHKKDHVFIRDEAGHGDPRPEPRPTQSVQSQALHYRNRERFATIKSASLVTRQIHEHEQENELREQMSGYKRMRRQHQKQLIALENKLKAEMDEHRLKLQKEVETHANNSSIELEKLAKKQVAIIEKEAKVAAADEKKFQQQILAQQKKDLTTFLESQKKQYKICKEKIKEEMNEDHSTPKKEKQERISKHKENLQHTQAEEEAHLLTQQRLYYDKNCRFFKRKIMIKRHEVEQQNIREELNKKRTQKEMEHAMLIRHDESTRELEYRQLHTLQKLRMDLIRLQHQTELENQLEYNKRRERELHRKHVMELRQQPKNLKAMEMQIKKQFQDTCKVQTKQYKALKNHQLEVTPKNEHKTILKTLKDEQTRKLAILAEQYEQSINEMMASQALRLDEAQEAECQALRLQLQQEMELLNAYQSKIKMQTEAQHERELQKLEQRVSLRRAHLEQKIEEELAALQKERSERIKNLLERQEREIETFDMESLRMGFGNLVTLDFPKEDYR
T14 sequence (Q09013 whole entry): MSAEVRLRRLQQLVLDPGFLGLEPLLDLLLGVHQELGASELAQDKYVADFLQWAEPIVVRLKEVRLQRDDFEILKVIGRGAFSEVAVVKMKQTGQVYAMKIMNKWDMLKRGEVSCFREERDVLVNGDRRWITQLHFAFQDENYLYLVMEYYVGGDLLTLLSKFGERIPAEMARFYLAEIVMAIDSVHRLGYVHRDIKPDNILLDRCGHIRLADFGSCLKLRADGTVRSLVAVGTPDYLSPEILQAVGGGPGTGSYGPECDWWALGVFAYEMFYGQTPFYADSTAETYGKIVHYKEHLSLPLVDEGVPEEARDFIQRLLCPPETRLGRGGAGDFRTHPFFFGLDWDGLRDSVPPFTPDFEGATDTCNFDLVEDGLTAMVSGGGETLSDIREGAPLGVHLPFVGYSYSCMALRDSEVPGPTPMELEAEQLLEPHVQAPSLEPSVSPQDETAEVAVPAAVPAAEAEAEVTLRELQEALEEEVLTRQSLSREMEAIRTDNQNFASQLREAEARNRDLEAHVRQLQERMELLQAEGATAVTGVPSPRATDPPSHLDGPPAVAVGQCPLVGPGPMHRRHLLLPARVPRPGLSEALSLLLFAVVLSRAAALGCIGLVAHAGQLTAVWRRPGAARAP
T38 sequence (P29317 24-976): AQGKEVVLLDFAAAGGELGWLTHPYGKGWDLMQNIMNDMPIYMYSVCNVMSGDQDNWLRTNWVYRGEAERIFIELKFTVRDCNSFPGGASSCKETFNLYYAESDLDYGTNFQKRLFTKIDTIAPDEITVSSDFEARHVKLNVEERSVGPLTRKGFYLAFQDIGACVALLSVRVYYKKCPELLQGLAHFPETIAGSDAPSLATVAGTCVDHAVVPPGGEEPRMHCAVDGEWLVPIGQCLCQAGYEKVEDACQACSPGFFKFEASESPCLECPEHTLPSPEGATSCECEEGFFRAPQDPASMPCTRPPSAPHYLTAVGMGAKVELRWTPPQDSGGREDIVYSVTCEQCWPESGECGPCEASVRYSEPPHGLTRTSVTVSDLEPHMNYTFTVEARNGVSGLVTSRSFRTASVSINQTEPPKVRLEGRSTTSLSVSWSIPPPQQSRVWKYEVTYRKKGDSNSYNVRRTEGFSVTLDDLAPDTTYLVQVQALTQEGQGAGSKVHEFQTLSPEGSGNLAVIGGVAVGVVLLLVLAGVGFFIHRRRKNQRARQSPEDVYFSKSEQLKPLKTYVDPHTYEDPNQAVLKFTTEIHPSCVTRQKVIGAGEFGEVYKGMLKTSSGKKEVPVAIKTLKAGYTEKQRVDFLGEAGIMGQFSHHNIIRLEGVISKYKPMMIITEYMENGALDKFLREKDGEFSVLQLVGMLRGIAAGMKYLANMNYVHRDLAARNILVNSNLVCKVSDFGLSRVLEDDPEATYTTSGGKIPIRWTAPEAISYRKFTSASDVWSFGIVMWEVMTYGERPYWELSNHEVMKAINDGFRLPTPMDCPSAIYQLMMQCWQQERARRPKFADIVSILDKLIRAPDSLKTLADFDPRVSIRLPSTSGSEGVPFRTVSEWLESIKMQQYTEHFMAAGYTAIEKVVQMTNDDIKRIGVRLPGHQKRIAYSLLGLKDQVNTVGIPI
T26 sequence (P80192 whole entry): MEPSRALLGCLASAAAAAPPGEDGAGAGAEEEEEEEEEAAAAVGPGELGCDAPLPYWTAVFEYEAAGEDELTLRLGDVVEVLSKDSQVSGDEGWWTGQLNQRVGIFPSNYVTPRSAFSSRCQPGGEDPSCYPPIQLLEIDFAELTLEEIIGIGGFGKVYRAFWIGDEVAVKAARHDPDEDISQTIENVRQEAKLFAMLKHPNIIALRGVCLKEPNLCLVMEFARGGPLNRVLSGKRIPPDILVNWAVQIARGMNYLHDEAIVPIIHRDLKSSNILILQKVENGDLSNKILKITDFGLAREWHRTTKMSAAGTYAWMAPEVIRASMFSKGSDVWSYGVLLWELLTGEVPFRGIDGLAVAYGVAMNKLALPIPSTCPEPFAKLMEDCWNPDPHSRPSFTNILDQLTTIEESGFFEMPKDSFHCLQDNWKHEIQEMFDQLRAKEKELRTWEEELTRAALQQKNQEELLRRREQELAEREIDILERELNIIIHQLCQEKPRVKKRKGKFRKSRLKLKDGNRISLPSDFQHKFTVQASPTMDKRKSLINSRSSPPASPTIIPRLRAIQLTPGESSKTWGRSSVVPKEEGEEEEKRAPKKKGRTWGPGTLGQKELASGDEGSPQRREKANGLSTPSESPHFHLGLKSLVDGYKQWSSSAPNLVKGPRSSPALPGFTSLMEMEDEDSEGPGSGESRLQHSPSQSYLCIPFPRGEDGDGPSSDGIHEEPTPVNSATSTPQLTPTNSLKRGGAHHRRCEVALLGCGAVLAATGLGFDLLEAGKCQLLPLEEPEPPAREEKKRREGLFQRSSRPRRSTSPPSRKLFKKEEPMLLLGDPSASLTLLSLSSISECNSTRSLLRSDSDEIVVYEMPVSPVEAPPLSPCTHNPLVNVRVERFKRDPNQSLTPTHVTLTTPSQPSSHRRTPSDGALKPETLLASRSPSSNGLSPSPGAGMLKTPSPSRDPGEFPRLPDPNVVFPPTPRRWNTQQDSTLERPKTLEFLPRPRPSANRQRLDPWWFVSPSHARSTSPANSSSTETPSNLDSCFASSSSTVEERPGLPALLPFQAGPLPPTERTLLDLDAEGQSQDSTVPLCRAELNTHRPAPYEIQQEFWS

**Q.** How did the inhibition at 10 µM (FLT1) turn out when O=C1Nc2c(cc([N+](=O)[O-])c3c2CCCC3)C1=NO [Compound 5d, 3-(Hydroxyimino)-5-nitro-1,3,6,7,8,9-hexahydro-2H-benzo[g]indol-2-one] was run?
**A.** The inhibition at 10 µM was 12%.

**Q.** What about the inhibition at 10 µM (AURKB) of the same compound?
**A.** The inhibition at 10 µM was 90.7%.

**Q.** And the inhibition at 10 µM (YES)?
**A.** Its inhibition at 10 µM is 26%.

**Q.** What about the inhibition at 10 µM (CDC2L2) of the same compound?
**A.** The inhibition at 10 µM was 0%.

**Q.** And the inhibition at 10 µM (HIPK4)?
**A.** The inhibition at 10 µM was 63%.

**Q.** What about the inhibition at 10 µM (CSNK1A1L) of the same compound?
**A.** Its inhibition at 10 µM is 63%.

**Q.** And the inhibition at 10 µM (CAMK2D)?
**A.** The inhibition at 10 µM was 51%.

**Q.** What about the inhibition at 10 µM (RET (M918T)) of the same compound?
**A.** The inhibition at 10 µM was 8%.

**Q.** What about the inhibition at 10 µM (ACVR2B) of the same compound?
**A.** Its inhibition at 10 µM is 25%.

**Q.** What about the inhibition at 10 µM (BRSK2) of the same compound?
**A.** The inhibition at 10 µM was 31%.

**Q.** And the inhibition at 10 µM (CSK)?
**A.** The inhibition at 10 µM was 21%.

**Q.** What about the inhibition at 10 µM (MKK7) of the same compound?
**A.** Its inhibition at 10 µM is 0%.

**Q.** What about the “Inhib. (%)” value (MKK7; 10 μM) of the same compound?
**A.** The value was “inactive”.

**Q.** What about the inhibition at 10 µM (FGFR1) of the same compound?
**A.** The inhibition at 10 µM was 5%.

**Q.** What about the inhibition at 10 µM (DMPK) of the same compound?
**A.** The inhibition at 10 µM was 49%.

**Q.** What about the inhibition at 10 µM (CAMK2G) of the same compound?
**A.** The inhibition at 10 µM was 25%.

**Q.** What about the inhibition at 10 µM (TAOK3) of the same compound?
**A.** The inhibition at 10 µM was 65%.

**Q.** And the inhibition at 10 µM (TRKA)?
**A.** Its inhibition at 10 µM is 0%.

**Q.** And the inhibition at 10 µM (FYN)?
**A.** The inhibition at 10 µM was 0%.

**Q.** And the inhibition at 10 µM (CSNK1G2)?
**A.** Its inhibition at 10 µM is 90%.

**Q.** And the inhibition at 10 µM (MYLK4)?
**A.** The inhibition at 10 µM was 7%.

**Q.** What about the inhibition at 10 µM (EGFR (L861Q)) of the same compound?
**A.** Its inhibition at 10 µM is 12%.

**Q.** What about the inhibition at 10 µM (PHKG1) of the same compound?
**A.** The inhibition at 10 µM was 0%.

**Q.** What about the inhibition at 10 µM (STK36) of the same compound?
**A.** The inhibition at 10 µM was 10%.

**Q.** What about the inhibition at 10 µM (CAMK2A) of the same compound?
**A.** The inhibition at 10 µM was 71%.

**Q.** And the inhibition at 10 µM (ABL1 (Q252H)-non-P)?
**A.** The inhibition at 10 µM was 55%.

**Q.** What about the inhibition at 10 µM (MLK1) of the same compound?
**A.** The inhibition at 10 µM was 18%.

**Q.** And the inhibition at 10 µM (ABL1 (Y253F)-P)?
**A.** Its inhibition at 10 µM is 41%.

**Q.** What about the inhibition at 10 µM (ROCK2) of the same compound?
**A.** Its inhibition at 10 µM is 54%.

**Q.** And the inhibition at 10 µM (WNK3)?
**A.** The inhibition at 10 µM was 28%.

**Q.** And the inhibition at 10 µM (FLT3-autoinhibited)?
**A.** The inhibition at 10 µM was 4%.

**Q.** What about the inhibition at 10 µM (RIPK4) of the same compound?
**A.** Its inhibition at 10 µM is 55%.

**Q.** What about the inhibition at 10 µM (MARK1) of the same compound?
**A.** Its inhibition at 10 µM is 24%.

**Q.** What about the inhibition at 10 µM (PHKG2) of the same compound?
**A.** The inhibition at 10 µM was 45%.

**Q.** And the inhibition at 10 µM (CASK)?
**A.** The inhibition at 10 µM was 2%.

**Q.** And the inhibition at 10 µM (CSNK1D)?
**A.** The inhibition at 10 µM was 79%.

**Q.** What about the inhibition at 10 µM (PRKCI) of the same compound?
**A.** The inhibition at 10 µM was 49%.

**Q.** And the inhibition at 10 µM [1]?
**A.** Its inhibition at 10 µM is 26%.

**Q.** What about the inhibition at 10 µM (EPHA2) of the same compound?
**A.** The inhibition at 10 µM was 19%.

**Q.** What about the inhibition at 10 µM (TBK1) of the same compound?
**A.** The inhibition at 10 µM was 46%.
